Drawing on patent US12492181B2, “Gem-disubstituted piperidine melanocortin subtype-2 receptor (MC2R) antagonists and uses thereof” (Crinetics Pharmaceuticals, Inc., priority 2019, dated 2025), this text covers Ki for 26 compounds.

Structures are written as SMILES.

For this assay, the target named is T1, hMC2 receptor (crude hMC2R membranes from CRE-bla-CHO-K1 cells stably expressing hMC2 receptor and hMRAP accessory protein) (Homo sapiens, UniProt Q01718).
T1 construct: crude membrane fractions
T1 sequence (Q01718 whole entry): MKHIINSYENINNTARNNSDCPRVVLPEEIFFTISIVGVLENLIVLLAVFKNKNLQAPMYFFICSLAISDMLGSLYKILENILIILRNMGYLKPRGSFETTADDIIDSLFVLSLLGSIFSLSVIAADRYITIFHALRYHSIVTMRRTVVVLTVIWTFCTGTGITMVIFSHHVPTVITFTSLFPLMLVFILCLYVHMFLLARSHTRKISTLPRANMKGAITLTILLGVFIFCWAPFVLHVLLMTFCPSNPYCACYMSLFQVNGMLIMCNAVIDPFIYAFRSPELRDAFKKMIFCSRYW
T1 sequence (Q8TCY5 whole entry partner): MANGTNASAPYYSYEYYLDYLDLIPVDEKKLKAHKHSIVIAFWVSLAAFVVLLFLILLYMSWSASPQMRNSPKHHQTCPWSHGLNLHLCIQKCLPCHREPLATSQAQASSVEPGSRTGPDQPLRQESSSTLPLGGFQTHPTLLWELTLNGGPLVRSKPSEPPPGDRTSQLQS
Briefly: hMC2 membrane binding assay ([125I]ACTH (1-39) Tyr23, SPA). As to conditions: displacement of 0.2 nM [125I]ACTH (1-39) Tyr23 from hMC2R membranes, 1.5 hours at room temperature; read-out: MC2R binding potency. A digest of the protocol:
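Crude membranes from CRE-bla-CHO-K1 cells stably co-expressing hMC2R and hMRAP, premixed with WGA PVT SPA beads in pH 7.4 HEPES buffer (5 mM MgCl2, 1 mM CaCl2, 0.20% BSA, protease inhibitors). Compounds compete with [125I]ACTH(1-39) Tyr23, read by scintillation. Ki from non-linear regression.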
In the case of `COc1ccccc1-c1ncc(C2(NC(=O)N[C@H]3CCN(C)C3)CCN(c3ccc(C(F)(F)F)cc3C#N)CC2)cc1F` [Compound 2-51, 1-{1-[2-cyano-4-(trifluoromethyl)phenyl]-4-[5-fluoro-6-(2-methoxyphenyl)pyridin-3-yl]piperidin-4-yl}-3-[(3S)-1-methylpyrrolidin-3-yl]urea], the Ki was below 10 nM.
The figure for `COc1ccccc1-c1ccc(C2(C(=O)N[C@H]3CCN(C)C3)CCN(c3ccc(C(F)(F)F)cc3Cl)CC2)cn1` [Compound 1-144, 1-[2-chloro-4-(trifluoromethyl)phenyl]-4-[6-(2-methoxyphenyl)pyridin-3-yl]-N-[(3S)-1-methylpyrrolidin-3-yl]piperidine-4-carboxamide] is below 10 nM; for `C[C@@H](CN(C)C)NC(=O)C1(c2ccc(-c3cccn3C)nc2)CCN(c2ccc(C(F)(F)F)cc2F)CC1` [Compound 1-297, N-[(2S)-1-(dimethylamino)propan-2-yl]-1-[2-fluoro-4-(trifluoromethyl)phenyl]-4-[6-(1-methyl-1H-pyrrol-2-yl)pyridin-3-yl]piperidine-4-carboxamide] it is below 10 nM.
The figure for `CCOc1ncccc1-c1ccc(C2(NC(=O)CCNC)CCN(c3ccc(C(F)(F)F)cc3C#N)CC2)cn1` [Compound 2-5, N-{1-[2-cyano-4-(trifluoromethyl)phenyl]-4-{2′-ethoxy-[2,3′-bipyridin]-5-yl}piperidin-4-yl}-3-(methylamino)propanamide] is below 10 nM.
With `CCOc1ncccc1-c1ncc(C2(C(=O)NCCN(C)C)CCN(c3ccc(C(F)(F)F)cc3F)CC2)cc1F` [Compound 1-284, N-[2-(dimethylamino)ethyl]-4-{2′-ethoxy-3-fluoro-[2,3′-bipyridin]-5-yl}-1-[2-fluoro-4-(trifluoromethyl)phenyl]piperidine-4-carboxamide], the Ki is below 10 nM.
Turning to `CCOc1ncccc1-c1ccc(C2(NC(=O)[C@@H]3CCNC3)CCN(c3ccc(C(F)(F)F)cc3C#N)CC2)cn1` [Compound 2-6, (3R)—N-{1-[2-cyano-4-(trifluoromethyl)phenyl]-4-{2′-ethoxy-[2,3′-bipyridin]-5-yl}piperidin-4-yl}pyrrolidine-3-carboxamide], the Ki was below 10 nM.
Regarding `CCOc1ncccc1-c1ccc(C2(NC(=O)CN(C)C)CCN(c3ccc(Cl)cc3C#N)CC2)cn1` [Compound 2-38, N-[1-(4-chloro-2-cyanophenyl)-4-{2′-ethoxy-[2,3′-bipyridin]-5-yl}piperidin-4-yl]-2-(dimethylamino)acetamide], the Ki is below 10 nM.
In the case of `CCc1ccccc1-c1ccc(C2(C(=O)N[C@@H]3CCN(C)C3)CCN(c3ccc(C(F)(F)F)cc3C#N)CC2)cn1` [Compound 1-60, 1-[2-cyano-4-(trifluoromethyl)phenyl]-4-[6-(2-ethylphenyl)pyridin-3-yl]-N-[(3R)-1-methylpyrrolidin-3-yl]piperidine-4-carboxamide], the Ki is below 10 nM.
With `CCOc1ncccc1-c1ccc(C2(C(=O)NC[C@@H](CO)NC)CCN(c3ccc(C(F)(F)F)cc3C#N)CC2)cn1` [Compound 1-47, 1-[2-cyano-4-(trifluoromethyl)phenyl]-4-{2′-ethoxy-[2,3′-bipyridin]-5-yl}-N-[(2S)-3-hydroxy-2-(methylamino)propyl]piperidine-4-carboxamide], the Ki was below 10 nM.
Consider `CCOc1ccccc1-c1ncc(C2(C(=O)N[C@H]3CCN(C)C3)CCN(c3ccc(C(F)(F)F)cc3C#N)CC2)cc1F` [Compound 1-124, 1-[2-cyano-4-(trifluoromethyl)phenyl]-4-[6-(2-ethoxyphenyl)-5-fluoropyridin-3-yl]-N-[(3S)-1-methylpyrrolidin-3-yl]piperidine-4-carboxamide], for which the Ki was below 10 nM.
The figure for `COc1ncc(F)cc1-c1ccc(C2(C(=O)N[C@H]3CCN(C)C3)CCN(c3ccc(C(F)(F)F)cc3Cl)CC2)cn1` [Compound 1-154, 1-[2-chloro-4-(trifluoromethyl)phenyl]-4-{5′-fluoro-2′-methoxy-[2,3′-bipyridin]-5-yl}-N-[(3S)-1-methylpyrrolidin-3-yl]piperidine-4-carboxamide] is below 10 nM; for `COc1ccccc1-c1ccc(C2(C(=O)NCCN3CCC3)CCN(c3ccc(C(F)(F)F)cc3C#N)CC2)cn1` [Compound 1-245, N-[2-(azetidin-1-yl)ethyl]-1-[2-cyano-4-(trifluoromethyl)phenyl]-4-[6-(2-methoxyphenyl)pyridin-3-yl]piperidine-4-carboxamide] it is below 10 nM; for `CN1CC[C@@H](NC(=O)C2(c3ccc(-c4cccc(F)c4F)nc3)CCN(c3ccc(C(F)(F)F)cc3C#N)CC2)C1` [Compound 1-61, 1-[2-cyano-4-(trifluoromethyl)phenyl]-4-[6-(2,3-difluorophenyl)pyridin-3-yl]-N-[(3R)-1-methylpyrrolidin-3-yl]piperidine-4-carboxamide] it is below 10 nM.
Turning to `CN1CC[C@@H](NC(=O)C2(c3ccc(-c4ccccc4C4CC4)nc3)CCN(c3ccc(C(F)(F)F)cc3C#N)CC2)C1` [Compound 1-113, 1-[2-cyano-4-(trifluoromethyl)phenyl]-4-[6-(2-cyclopropylphenyl)pyridin-3-yl]-N-[(3R)-1-methylpyrrolidin-3-yl]piperidine-4-carboxamide], the Ki was below 10 nM.
With `CCOc1ncccc1-c1ncc(C2(C(=O)N[C@H]3CCN(C)C3)CCN(c3ccc(C(F)(F)F)cc3C#N)CC2)cc1F` [Compound 1-109, 1-[2-cyano-4-(trifluoromethyl)phenyl]-4-{2′-ethoxy-3-fluoro-[2,3′-bipyridin]-5-yl}-N-[(3S)-1-methylpyrrolidin-3-yl]piperidine-4-carboxamide] the figure was below 10 nM; with `CCOc1ccccc1-c1ncc(C2(C(=O)N[C@@H]3CCN(C)C3)CCN(c3ccc(C(F)(F)F)cc3C#N)CC2)cc1F` [Compound 1-123, 1-[2-cyano-4-(trifluoromethyl)phenyl]-4-[6-(2-ethoxyphenyl)-5-fluoropyridin-3-yl]-N-[(3R)-1-methylpyrrolidin-3-yl]piperidine-4-carboxamide], below 10 nM; with `CN1CC[C@H](NC(=O)C2(c3ccc(-c4cccn4C)nn3)CCN(c3ccc(C(F)(F)F)cc3F)CC2)C1` [Compound 1-171, 1-[2-fluoro-4-(trifluoromethyl)phenyl]-4-[6-(1-methyl-1H-pyrrol-2-yl)pyridazin-3-yl]-N-[(3S)-1-methylpyrrolidin-3-yl]piperidine-4-carboxamide], below 10 nM.
Regarding `COc1ncccc1-c1ccc(C2(C(=O)N[C@H]3CCN(C)C3)CCN(c3ccc(C(F)(F)F)cc3C#N)CC2)cn1` [Compound 1-179, 1-[2-cyano-4-(trifluoromethyl)phenyl]-4-{2′-methoxy-[2,3′-bipyridin]-5-yl}-N-[(3S)-1-methylpyrrolidin-3-yl]piperidine-4-carboxamide], the Ki was below 10 nM.
For the compound `CCOc1ccccc1-c1ccc(C2(C(=O)N[C@H]3CCN(C)C3)CCN(c3ccc(Cl)cc3Cl)CC2)cn1` [Compound 1-95, 1-(2,4-dichlorophenyl)-4-[6-(2-ethoxyphenyl)pyridin-3-yl]-N-[(3S)-1-methylpyrrolidin-3-yl]piperidine-4-carboxamide], the Ki is below 10 nM.
For the compound `CCOc1ncccc1-c1ccc(C2(C(=O)N[C@H]3CCN(C)C3)CCN(c3ccc(C(F)(F)F)cc3F)CC2)nn1` [Compound 1-193, 4-[6-(2-ethoxypyridin-3-yl)pyridazin-3-yl]-1-[2-fluoro-4-(trifluoromethyl)phenyl]-N-[(3S)-1-methylpyrrolidin-3-yl]piperidine-4-carboxamide], the Ki is below 10 nM.
The figure for `CCOc1ncccc1-c1ccc(C2(C(=O)NC[C@H](CO)NC)CCN(c3ccc(C(F)(F)F)cc3C#N)CC2)cn1` [Compound 1-44, 1-[2-cyano-4-(trifluoromethyl)phenyl]-4-{2′-ethoxy-[2,3′-bipyridin]-5-yl}-N-[(2R)-3-hydroxy-2-(methylamino)propyl]piperidine-4-carboxamide] is below 10 nM.
As to `CN1CC[C@H](NC(=O)C2(c3ccc(-c4cccn4C4CC4)nc3)CCN(c3ccc(C(F)(F)F)cc3C#N)CC2)C1` [Compound 1-158, 1-[2-cyano-4-(trifluoromethyl)phenyl]-4-[6-(1-cyclopropyl-1H-pyrrol-2-yl)pyridin-3-yl]-N-[(3S)-1-methylpyrrolidin-3-yl]piperidine-4-carboxamide], the Ki was below 10 nM.
Take `CCOc1ncccc1-c1ccc(C2(C(=O)NC[C@@H](N)CO)CCN(c3ccc(C(F)(F)F)cc3C#N)CC2)cn1` [Compound 1-17, N-[(2R)-2-amino-3-hydroxypropyl]-1-[2-cyano-4-(trifluoromethyl)phenyl]-4-{2′-ethoxy-[2,3′-bipyridin]-5-yl}piperidine-4-carboxamide]: the Ki was below 10 nM.
Turning to `CN1CC[C@H](NC(=O)C2(c3ccc(-c4cccn4C)nn3)CCN(c3ccc(C(F)(F)F)cc3C#N)CC2)C1` [Compound 1-168, 1-[2-cyano-4-(trifluoromethyl)phenyl]-4-[6-(1-methyl-1H-pyrrol-2-yl)pyridazin-3-yl]-N-[(3S)-1-methylpyrrolidin-3-yl]piperidine-4-carboxamide], the Ki is below 10 nM.
Turning to `COc1ccccc1-c1ccc(C2(C(=O)N[C@@H]3CN4CCC3CC4)CCN(c3ccc(C(F)(F)F)cc3C#N)CC2)cn1` [Compound 1-218, N-[(3S)-1-azabicyclo[2.2.2]octan-3-yl]-1-[2-cyano-4-(trifluoromethyl)phenyl]-4-[6-(2-methoxyphenyl)pyridin-3-yl]piperidine-4-carboxamide], the Ki was below 10 nM.
`CCOc1ncccc1-c1ccc(C2(C(=O)N[C@@H]3CCN(C)C3)CCN(c3ccc(C(F)(F)F)nc3C#N)CC2)cn1` [Compound 1-24, 1-[2-cyano-6-(trifluoromethyl)pyridin-3-yl]-4-{2′-ethoxy-[2,3′-bipyridin]-5-yl}-N-[(3R)-1-methylpyrrolidin-3-yl]piperidine-4-carboxamide]: the Ki is below 10 nM.
